Source: patent US8252572B2, “Use of islet glucose-6-phosphatase related protein as a diagnostic tool and therapeutic target for autoimmune diabetes” (priority 2003, dated 2012)

What was measured:
[1] = tested on: NY8.3 CD8 T-cell clone; settings: cited from earlier work
[2] = tested on: CD8 positive cells from the whole pancreas of NOD mice; experiment: MHC class I tetramer binding to pancreatic mononuclear cells (FACS); type: cell-based, NOD mouse
Description: Cells were isolated from collagenase digested mouse pancreas by gradient centrifugation and subject to 3 color FACS analysis using antibodies to CD45, CD8 and PE-streptavidin conjugated tetramers carrying peptides derived from IGRP. The gated (R1) population were 95% CD45 positive and composed of 12.5% CD8 cells.
MHC class I tetramers were generated using the NIH tetramer facility. These were loaded with a series of peptides including the native mouse IGRP peptide (VYLKTNVFL (SEQ ID NO.: 6); peptide C, FIG. 4) corresponding to the NRP-V7 mimeotope (KYNKANVFL (SEQ ID NO.: 7)) that stimulates the NY8.3 CD8 T-cell clone. A procedure was developed for the isolation of mononuclear cells from the whole pancreas of NOD mice yielding approximately 0.5-1×10^6 CD45 positive cells (lymphocytes) per mouse (12-16 wk females) for tetramer binding assays (FIG. 4). The lymphocyte population contained 10-15% CD8 positive cells of which 8% bound the native peptide tetramer. These assays confirm the remarkable finding that a major proportion of the CD8 cells in the NOD pancreas target one specific IGRP epitope. The procedure developed here represents a technical advance on previous tetramer studies of activated NRP reactive T-cell in NOD mice which required up to 40 animals for a single experiment and amplification of islet-derived T-cells for 7-9 days in the presence of IL-2.

[3] = tested on: mixed lymphocyte preparations of pre-diabetic 12 week old female NOD mice; experiment: T-cell proliferative responses to recombinant antigens (3H thymidine); type: cell-based, NOD mouse; settings: for T-cell proliferative response (in words): recombinant antigens as β-galactosidase fusion proteins, NOD lymphocytes
Experimental: Lymphocytes prepared from pancreatic draining lymph nodes were mixed with splenocytes from the same animal and incubated for 3 days (500×10^3 cells) in Click's medium with […] NOD mouse serum 50 μM mercaptoethanol and the indicated recombinant antigens that were generated as fusion proteins with β-galactosidase in the pUEX vector. Cultures were pulsed for 16 h with ^3H thymidine prior to harvest.
T-cell proliferative responses to recombinant IGRP (3-100 μg/ml) were observed from mixed lymphocyte preparations of pre-diabetic 12 week old female NOD mice (SImax=10).

## KYNKANVFL (SEQ ID NO.: 7) (artificial Mus sp.) [NRP-V7, mimeotope that stimulates the NY8.3 CD8 T-cell clone]
[1]
  stimulation of T-cell clone (in words): stimulates

## VYLKTNVFL (SEQ ID NO.: 6) (listed as Mus sp.) [peptide C, native mouse IGRP peptide, cognate peptide of the NY8.3 clone]
[2]; K^d tetramer loaded with peptide, pancreatic lymphocytes of 12-16 wk female NOD mice
  proportion of CD8 positive cells that bound the tetramer: 8%
[2]; PE-streptavidin conjugated tetramers carrying peptides derived from IGRP, 3 color FACS, FIG. 4
  tetramer staining of pancreatic CD8 cells (in words): significant proportion bound

## β-galactosidase: the fusion partner, used as control antigen [reference compound]
[3]
  T-cell proliferative response (in words): minimal response

B1: G6Pase: equivalent β-galactosidase fusion construct with liver glucose-6-phosphatase (protein, UniProt P35575 1-357, looked up)
Glucose-6-phosphatase …: MEEGMNVLHDFGIQSTHYLQVNYQDSQDWFILVSVIADLRNAFYVLFPIWFHLQEAVGIKLLWVAVIGDWLNLVFKWILFGQRPYWWVLDTDYYSNTSVPLIKQFPVTCETGPGSPSGHAMGTAGVYYVMVTSTLSIFQGKIKPTYRFRCLNVILWLGFWAVQLNVCLSRIYLAAHFPHQVVAGVLSGIAVAETFSHIHSIYNASLKKYFLITFFLFSFAIGFYLLLKGLGVDLLWTLEKAQRWCEQPEWVHIDTTPFASLLKNLGTLFGLGLALNSSMYRESCKGKLSKWLPFRLSSIVASLVLLHVFDSLKPPSQVELVFYVLSFCKSAVVPLASVSVIPYCLAQVLGQPHKKSL
[3]
  T-cell proliferative response (in words): minimal response

B2: recombinant IGRP: recombinant islet glucose-6-phosphatase related protein generated as fusion protein with β-galactosidase in the pUEX vector (protein, UniProt Q9Z186 1-355, looked up)
Glucose-6-phosphatase 2: MDFLHRSGVLIIHHLQEDYRTYYGFLNFMSNVGDPRNIFSIYFPLWFQLNQNVGTKMIWVAVIGDWFNLIFKWILFGHRPYWWIQETEIYPNHSSPCLEQFPTTCETGPGSPSGHAMGSSCVWYVMVTAALSYTISRMEESSVTLHRLTWSFLWSVFWLIQISVCISRVFIATHFPHQVILGVIGGMLVAEAFEHTPGVHMASLSVYLKTNVFLFLFALGFYLLLRLFGIDLLWSVPIAKKWCANPDWIHIDSTPFAGLVRNLGVLFGLGFAINSEMFLRSCQGENGTKPSFRLLCALTSLTTMQLYRFIKIPTHAEPLFYLLSFCKSASIPLMVVALIPYCVHMLMRPGDKKTK
[3]; recombinant IGRP 3-100 μg/ml, β-galactosidase fusion protein, 3 days culture, 16 h 3H thymidine pulse
  T-cell proliferative response, SImax: 10

B3: UGRP: equivalent construct with ubiquitously expressed G6Pase related protein (protein, UniProt Q6NSQ9 1-346, looked up)
Glucose-6-phosphatase 3: MESTLSAGIIMAEALQNRLPGLENMWLWVTFLGDPKNLFQFCFPAAYYASRRLGISVLWITFIAEWLNLVFKWFLFGDRPFWWVHESGYSTQTPIQIHQFPSSCETGPGSPSGHCMITGAALWPVMTAISSQVASRSRSPWVRVIPGLAYCTFLLAVGLSRVFLLAHFPHQVLGGLIVGAALGWLMSPRVPMERELSFYGLTALALMLGASLMYWTLFTLGLDLSWSINLASKWCERPEWVHMDSRPFASLSRDSGSALGLGIALHTPCYAQIRRAHLGNGQKIACFVLAMGLLVFLEWLGYPPQISLFYIFNFLKYTLWPCLVLALVPWVVHTLSDQEAPPIRSS
[3]
  T-cell proliferative response (in words): minimal response
